Results on 3 molecules are retold here after paper PMC11245036 (bioRxiv, 2024).

In assay [1] the target is T1, GluA2(Q) (Rattus norvegicus, UniProt P19491). The assay is described as follows: cryo-EM structure. Format: binding.
For assay [2], the target named is T1, GluA2(Q). Description: cryo-EM structure with glutamate and CTZ. It counts as cell-based.
For the next assay, the target named is GluA2(E) (Rattus norvegicus, UniProt P19491, Q607E). The assay is described as follows: whole-cell patch clamp in HEK-293 cells, -60 mV. It counts as cell-based. Background: In patch-clamp work, channel activity is measured electrically.
For a further assay, the target named is GluA1 (Rattus norvegicus, UniProt P19490). The assay is described as follows: whole-cell patch clamp in HEK-293 cells, -60 mV. It counts as cell-based.
For assay [3], the target named is GluA2(Q) subunit, as part of the fusion construct GluA2-γ2EM (rat) (UniProt P19491). Description: cryo-EM structure.

Sequence of GluA1 (P19490 19-907): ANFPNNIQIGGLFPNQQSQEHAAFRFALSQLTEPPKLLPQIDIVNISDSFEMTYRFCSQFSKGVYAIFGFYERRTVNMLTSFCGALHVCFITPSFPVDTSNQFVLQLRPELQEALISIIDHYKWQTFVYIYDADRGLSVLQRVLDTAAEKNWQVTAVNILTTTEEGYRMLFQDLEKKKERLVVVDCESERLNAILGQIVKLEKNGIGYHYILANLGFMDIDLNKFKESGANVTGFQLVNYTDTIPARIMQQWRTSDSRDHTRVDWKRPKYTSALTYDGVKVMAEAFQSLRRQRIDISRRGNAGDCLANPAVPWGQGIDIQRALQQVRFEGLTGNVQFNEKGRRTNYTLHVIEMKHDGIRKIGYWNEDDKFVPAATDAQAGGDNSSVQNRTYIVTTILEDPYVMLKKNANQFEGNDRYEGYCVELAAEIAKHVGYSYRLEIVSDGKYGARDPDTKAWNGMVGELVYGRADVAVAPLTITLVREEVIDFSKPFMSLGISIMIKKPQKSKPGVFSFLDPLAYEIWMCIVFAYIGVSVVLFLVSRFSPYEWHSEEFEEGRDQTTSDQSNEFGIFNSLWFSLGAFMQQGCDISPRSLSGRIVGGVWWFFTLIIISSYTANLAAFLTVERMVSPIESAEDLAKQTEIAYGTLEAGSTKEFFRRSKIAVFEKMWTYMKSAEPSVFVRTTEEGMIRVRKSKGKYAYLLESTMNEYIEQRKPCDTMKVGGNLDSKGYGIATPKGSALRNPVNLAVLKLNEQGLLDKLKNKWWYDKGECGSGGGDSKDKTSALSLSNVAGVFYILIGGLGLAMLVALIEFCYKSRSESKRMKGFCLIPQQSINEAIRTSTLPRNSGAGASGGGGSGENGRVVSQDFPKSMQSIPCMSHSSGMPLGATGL

Turning to `NS(=O)(=O)c1cc2c(cc1Cl)NC(C1CC3C=CC1C3)NS2(=O)=O` (centres unmarked) [CTZ], the “cryo-EM structure (GluA2-γ2mem), 100 μM CTZ” value on GluA2(Q) [1] was “Glutamate (yellow), CTZ (purple), and memantine (cyan) are shown as space filling models”. As to `CC12CC3CC(C)(C1)CC(N)(C3)C2` [memantine], the results for the IC50 against GluA2(Q) [2], on GluA2(E) and at GluA1 were 49 ± 2 µM, 25 ± 2 µM and 10 ± 2 µM, respectively. In the case of “GluA2(Q) subunit, as part of the fusion construct GluA2-γ2EM (from UniProt P19491-2 22-883) (receptor)”, in assay [3], the stoichiometry N (in general, a count of units in the complex or per binding partner) is 4.
